According to the Kinase Knowledgebase extract (Sharma et al. 2016):

Legend:
Assay in all cases: Enzyme Assay
[1] = target: PIK3CD (Human) (UniProt O00329)
[2] = target: PIK3CG (human) (UniProt P48736)
[3] = target: PIK3CB (Human) (UniProt P42338)
Sequence of PIK3CB (Human) (P42338 whole entry, looked up): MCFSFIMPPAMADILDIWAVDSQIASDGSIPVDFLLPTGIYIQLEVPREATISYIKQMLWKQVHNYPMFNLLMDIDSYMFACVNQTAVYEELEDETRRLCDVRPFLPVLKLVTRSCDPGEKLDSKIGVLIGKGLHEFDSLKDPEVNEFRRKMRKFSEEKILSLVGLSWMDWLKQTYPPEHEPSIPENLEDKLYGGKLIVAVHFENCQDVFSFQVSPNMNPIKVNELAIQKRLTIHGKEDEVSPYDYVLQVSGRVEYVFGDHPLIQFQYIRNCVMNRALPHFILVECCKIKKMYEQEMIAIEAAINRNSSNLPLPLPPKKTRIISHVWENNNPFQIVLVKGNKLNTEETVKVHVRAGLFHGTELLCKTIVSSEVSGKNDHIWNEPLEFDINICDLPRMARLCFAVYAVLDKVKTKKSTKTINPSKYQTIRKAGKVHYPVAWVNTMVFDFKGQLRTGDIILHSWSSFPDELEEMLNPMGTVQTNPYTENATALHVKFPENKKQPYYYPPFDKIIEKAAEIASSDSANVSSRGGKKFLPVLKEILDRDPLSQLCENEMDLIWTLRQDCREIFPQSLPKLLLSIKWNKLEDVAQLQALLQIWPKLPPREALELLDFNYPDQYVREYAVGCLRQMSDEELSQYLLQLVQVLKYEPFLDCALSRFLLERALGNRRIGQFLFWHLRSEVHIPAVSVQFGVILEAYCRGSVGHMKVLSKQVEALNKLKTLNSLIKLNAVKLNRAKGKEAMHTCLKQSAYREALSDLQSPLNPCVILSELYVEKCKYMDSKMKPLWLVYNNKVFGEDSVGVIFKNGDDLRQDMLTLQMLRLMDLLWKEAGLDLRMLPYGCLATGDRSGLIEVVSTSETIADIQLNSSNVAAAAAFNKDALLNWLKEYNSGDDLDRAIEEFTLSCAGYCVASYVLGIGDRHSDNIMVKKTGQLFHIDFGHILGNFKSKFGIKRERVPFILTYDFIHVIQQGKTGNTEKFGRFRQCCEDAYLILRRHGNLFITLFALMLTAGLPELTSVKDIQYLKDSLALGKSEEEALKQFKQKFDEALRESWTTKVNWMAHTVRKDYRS

Sequence of PIK3CG (human) (P48736 whole entry, looked up): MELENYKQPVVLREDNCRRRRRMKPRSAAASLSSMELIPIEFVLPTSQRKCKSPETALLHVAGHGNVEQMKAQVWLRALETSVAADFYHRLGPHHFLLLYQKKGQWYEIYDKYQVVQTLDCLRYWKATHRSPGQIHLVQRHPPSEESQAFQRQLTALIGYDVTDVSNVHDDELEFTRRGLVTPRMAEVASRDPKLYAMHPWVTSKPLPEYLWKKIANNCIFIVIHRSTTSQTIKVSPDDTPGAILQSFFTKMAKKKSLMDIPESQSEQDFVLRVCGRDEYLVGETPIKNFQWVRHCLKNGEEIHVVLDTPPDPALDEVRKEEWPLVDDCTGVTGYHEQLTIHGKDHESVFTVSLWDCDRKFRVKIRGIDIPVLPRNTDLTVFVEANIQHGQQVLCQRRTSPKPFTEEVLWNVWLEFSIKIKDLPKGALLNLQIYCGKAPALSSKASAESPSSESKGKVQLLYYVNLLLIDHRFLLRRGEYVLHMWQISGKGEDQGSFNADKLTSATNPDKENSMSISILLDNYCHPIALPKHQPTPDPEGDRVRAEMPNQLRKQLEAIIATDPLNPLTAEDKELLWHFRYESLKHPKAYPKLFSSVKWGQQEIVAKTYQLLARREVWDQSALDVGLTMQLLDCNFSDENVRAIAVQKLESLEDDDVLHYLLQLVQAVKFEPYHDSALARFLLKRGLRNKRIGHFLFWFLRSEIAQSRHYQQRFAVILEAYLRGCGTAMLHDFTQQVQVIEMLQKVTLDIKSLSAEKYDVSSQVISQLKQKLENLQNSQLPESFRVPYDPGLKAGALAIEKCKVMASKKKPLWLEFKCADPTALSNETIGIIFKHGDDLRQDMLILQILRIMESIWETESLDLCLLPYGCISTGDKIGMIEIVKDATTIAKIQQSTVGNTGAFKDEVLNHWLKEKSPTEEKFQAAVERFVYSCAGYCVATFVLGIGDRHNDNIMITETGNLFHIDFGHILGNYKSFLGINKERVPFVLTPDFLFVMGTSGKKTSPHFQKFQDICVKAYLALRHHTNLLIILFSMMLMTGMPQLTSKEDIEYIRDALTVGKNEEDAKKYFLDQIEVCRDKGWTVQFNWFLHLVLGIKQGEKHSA
Sequence of PIK3CD (Human) (O00329 whole entry, looked up): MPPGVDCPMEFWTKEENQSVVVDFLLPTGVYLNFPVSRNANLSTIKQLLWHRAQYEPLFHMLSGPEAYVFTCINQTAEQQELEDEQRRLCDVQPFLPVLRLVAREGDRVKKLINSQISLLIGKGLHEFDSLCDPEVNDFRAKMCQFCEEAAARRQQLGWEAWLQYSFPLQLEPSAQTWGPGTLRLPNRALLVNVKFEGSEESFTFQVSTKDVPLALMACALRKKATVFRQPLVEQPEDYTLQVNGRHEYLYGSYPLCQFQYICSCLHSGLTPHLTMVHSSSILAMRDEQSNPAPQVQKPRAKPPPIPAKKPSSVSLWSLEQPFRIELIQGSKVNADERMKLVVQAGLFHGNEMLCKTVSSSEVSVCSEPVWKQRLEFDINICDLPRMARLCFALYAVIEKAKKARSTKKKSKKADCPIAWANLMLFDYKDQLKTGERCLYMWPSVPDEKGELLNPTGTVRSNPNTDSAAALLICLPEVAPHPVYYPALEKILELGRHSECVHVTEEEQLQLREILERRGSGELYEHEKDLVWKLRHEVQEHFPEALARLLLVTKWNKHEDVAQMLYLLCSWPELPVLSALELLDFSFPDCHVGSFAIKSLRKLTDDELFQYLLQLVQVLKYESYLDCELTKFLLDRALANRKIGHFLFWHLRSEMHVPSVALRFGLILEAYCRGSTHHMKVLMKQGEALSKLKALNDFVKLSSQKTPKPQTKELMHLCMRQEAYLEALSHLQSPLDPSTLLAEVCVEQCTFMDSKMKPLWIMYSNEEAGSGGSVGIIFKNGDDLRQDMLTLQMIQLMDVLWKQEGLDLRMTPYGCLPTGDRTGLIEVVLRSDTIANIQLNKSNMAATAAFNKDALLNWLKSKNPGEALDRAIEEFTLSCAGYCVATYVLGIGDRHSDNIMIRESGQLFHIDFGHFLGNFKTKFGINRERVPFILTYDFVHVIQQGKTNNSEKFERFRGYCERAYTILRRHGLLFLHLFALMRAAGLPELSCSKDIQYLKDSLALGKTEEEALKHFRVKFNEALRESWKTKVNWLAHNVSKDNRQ

IC50 [1]	IC50 [2]	IC50 [3]	SMILES
26 nM	231 nM	–	N#Cc1n[nH]c2ncnc(N3CCC[C@H]3c3nn4cccc4c(=O)n3-c3ccccc3)c12
1 nM	15 nM	47 nM	COc1ncc(-c2n[nH]c3ncnc(N4CCC[C@H]4c4nn5ccc(Cl)c5c(=O)n4-c4ccccc4)c23)cn1
64 nM	16 nM	–	C[S@@+]([O-])c1c[nH]c2ncnc(N3C[C@@H](C#N)C[C@H]3c3nn4ccc(Cl)c4c(=O)n3-c3ccccc3)c12
136 nM	–	–	N#Cc1c(N)ncnc1OCc1cc2ncc(Cl)n2c(=O)n1-c1ccccc1
300 nM	–	–	C=Cc1ccn2nc([C@@H]3CCN3c3ncnc4[nH]cc(C#N)c34)n(-c3ccccc3)c(=O)c12
5 nM	89 nM	–	COc1cccc(-n2c([C@@H]3CCCN3c3ncnc4[nH]cc(C#N)c34)nn3cccc3c2=O)c1
93 nM	–	–	N#Cc1c[nH]c2ncnc(N3CC[C@H]3c3nn4cccc4c(=O)n3-c3ccccc3)c12
156 nM	287 nM	–	O=c1c2c(Br)ccn2nc([C@@H]2CCN2c2ncnc3[nH]cnc23)n1-c1ccccc1
6 nM	40 nM	–	Nc1nc(N2CCC[C@H]2c2nn3cccc3c(=O)n2-c2ccccc2)c2nc[nH]c2n1
38 nM	10 nM	–	Nc1ncc(C(=O)C(F)F)c(N2CC[C@H]2c2nn3ccc(Cl)c3c(=O)n2-c2ccccc2)n1
21 nM	38 nM	256 nM	C[S@+]([O-])c1c[nH]c2ncnc(N3C[C@@H](C#N)C[C@H]3c3nn4ccc(Cl)c4c(=O)n3-c3ccccc3)c12
40 nM	25 nM	–	Nc1ncc([N+](=O)O)c(N2CC[C@H]2c2nn3ccc(Cl)c3c(=O)n2-c2ccccc2)n1
12 nM	18 nM	1580 nM	C[C@H]1CN(c2nc(N)nc3c2C(=O)CCN3)[C@@H]1c1nn2ccc(Cl)c2c(=O)n1-c1ccccn1
–	105 nM	–	CC(Nc1ncnc2[nH]cc(C#N)c12)c1cc2cccn2c(=O)n1-c1ccccc1 (configuration not stated)
